Values joined by “and” are separate entries in the source; they are usually repeats but may differ in a detail not shown here. Equal values may be shown once.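 Dose response: 5 concentrations. Exposure: 48 h. Format: 96-well plates. Endpoint: linear interpolation; highest concentration if not reached. At the GI50, growth is halved. The concentration for full growth arrest is given as TGI.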
How the values were obtained:
Assay in all cases: growth of human tumour cells (NCI), 48 h
HL-60(TB) leukemia = tested on: HL-60(TB) leukemia
K-562 leukemia = tested on: K-562 leukemia
M14 melanoma = tested on: M14 melanoma
MOLT-4 leukemia = tested on: MOLT-4 leukemia
MDA-MB-435 = tested on: MDA-MB-435
HS 578T breast = tested on: HS 578T breast
PC-3 prostate = tested on: PC-3 prostate
SF-295 CNS = tested on: SF-295 CNS

| SMILES | GI50 (HL-60(TB) leukemia) | TGI (HL-60(TB) leukemia) | GI50 (K-562 leukemia) | TGI (K-562 leukemia) | GI50 (M14 melanoma) | TGI (M14 melanoma) | GI50 (MOLT-4 leukemia) | TGI (MOLT-4 leukemia) | GI50 (MDA-MB-435) | TGI (MDA-MB-435) | GI50 (HS 578T breast) | TGI (HS 578T breast) | GI50 (PC-3 prostate) | TGI (PC-3 prostate) | GI50 (SF-295 CNS) | TGI (SF-295 CNS) |
| --- | --- | --- | --- | --- | --- | --- | --- | --- | --- | --- | --- | --- | --- | --- | --- | --- |
| Cc1ccc(NSc2ccccc2[N+](=O)[O-])cc1 | 0.368 µM | 14.5 µM | 0.125 µM | 22.9 µM | 0.146 µM | 15.3 µM | 0.208 µM | > 62.7 µM | 0.0678 µM | 0.171 µM | 0.921 µM | 13.8 µM | 1.29 µM | 16.6 µM | 0.889 µM | 9.18 µM |
| Cc1cc(O)ccc1O | 2.64 µM | 7.43 µM | 13.8 µM | 48.1 µM | – | – | 5.24 µM | 37.7 µM | 17.8 µM | 36.6 µM | 26.7 µM | > 100 µM | 32.8 µM | > 100 µM | 34.9 µM | > 100 µM |
| CC(C)(C)c1cn2cccc(C(=O)N3CCN(CC(=O)Nc4ccc(Cl)cc4C(=O)c4ccccc4Cl)CC3)c2n1 | > 100 µM | > 100 µM | > 100 µM | > 100 µM | 15.4 µM | 33.2 µM | 5.52 µM | > 100 µM | 6.39 µM | 21.6 µM | 4.72 µM | 19.9 µM | 2.35 µM | 6.88 µM | 4.05 µM | 7.18 µM |
| C/C1=C\CC[C@@]2(C)O[C@@H]2C[C@@H]2[C@H](C/C(C)=C/CC1)OC(=O)C21CCN=N1 (stereo partly drawn) | – | > 100 µM | 71.2 µM | 42.7 µM and > 100 µM | > 100 µM | > 100 µM | > 100 µM | 75 µM and > 100 µM | > 100 µM | > 100 µM | > 100 µM | 75 µM and > 100 µM | > 100 µM | > 100 µM | > 100 µM | 75 µM and > 100 µM |
| CO/N=C(\COc1ccc2c(c1)oc(=O)c1cc(OC)ccc12)c1ccc(F)cc1 | – | – | 23.9 µM | 58.7 µM | 17.8 µM | 45.7 µM | 36.6 µM | > 100 µM | 66.1 µM | > 100 µM | 29.9 µM | > 100 µM | 20.9 µM | 66.5 µM | 24.1 µM | 87.5 µM |
| O=C1/C(=C/c2ccc([N+](=O)[O-])o2)Oc2ccccc21 | 1.33 µM | 3.89 µM | 0.371 µM | 1.97 µM | 1.69 µM | 3.88 µM | 1.35 µM | 3.7 µM | 1.79 µM | 4.01 µM | 2.88 µM | 21.4 µM | 2.25 µM | 7.12 µM | 3.43 µM | 13.8 µM |
| O=C(N/N=c1/ccoc2cccnc12)N1CCN(c2ncccn2)CC1 | 0.0149 µM | 1.69 µM | < 0.01 µM | 4.82 µM | 0.0831 µM | 2.59 µM | < 0.0129 µM | 8.06 µM | 0.568 µM | 8.24 µM | 1.07 µM | 24.5 µM | < 0.01 µM | 6.38 µM | 0.268 µM | 6.03 µM |
| CC(=O)c1c(O)ccc2c(C)c(C(=O)O)oc12 | – | – | > 100 µM | > 100 µM | > 100 µM | > 100 µM | > 100 µM | > 100 µM | > 100 µM | > 100 µM | > 100 µM | > 100 µM | > 100 µM | > 100 µM | > 100 µM | > 100 µM |
| CCOCC(=O)N[C@H]1CCc2cc(OC(=O)COCC)c(OC)c(OC)c2-c2ccc(SC)c(=O)cc21 | – | 0.0313 µM and 0.0326 µM | – | 0.0691 µM | 0.0134 µM | 0.0762 µM | 0.034 µM | > 100 µM | – | 0.00412 µM | – | – | 0.0164 µM | – | 0.0198 µM | – |
| COc1cc(C(=O)/C=C/c2c(-c3ccc(F)cc3)nc3ncccn23)cc(OC)c1OC | 3.33 µM | > 100 µM | 3.03 µM | > 100 µM | – | – | 3.75 µM | > 100 µM | 2.36 µM | 96.6 µM | 2.01 µM | 11.2 µM | 4.35 µM | > 100 µM | 2.43 µM | 6.53 µM |
| O=C1c2cccc3cccc(c23)C(=O)N1CCCCN1CCN(CCCCOc2ccc(-c3nc4ccc(N5CCOCC5)cc4[nH]3)cc2)CC1 | 4.62 µM | > 100 µM | 4.35 µM | > 100 µM | > 100 µM | > 100 µM | 3.76 µM | > 100 µM | > 100 µM | > 100 µM | > 100 µM | > 100 µM | – | – | > 100 µM | > 100 µM |
| CCCC(=O)Nc1cc([N+](=O)[O-])c([N+](=O)[O-])cc1OC | – | 39 µM | – | > 100 µM | – | 25.6 µM | – | – | – | 33.3 µM | – | 46.5 µM | – | > 100 µM | – | 21.7 µM |
| CC1CC(C)/C(=N/NC(N)=O)C(C(O)CC2CCC(=O)NC2=O)C1 (stereo not drawn) | 5.6 µM | > 100 µM | – | – | 3.64 µM | > 100 µM | 4.09 µM | > 100 µM | 3.3 µM | 97 µM | 1.34 µM | 8.25 µM | 4.1 µM | > 100 µM | 1.68 µM | 13.5 µM |
| c1ccc2c(Nc3ccc(Oc4ccc(Nc5c6ccccc6nc6ccccc56)cc4)cc3)c3ccccc3nc2c1 | – | – | 0.32 µM | 1.08 µM | – | 1.05 µM | 0.186 µM | 0.843 µM | – | 0.4 µM | – | 5.04 µM | – | 0.366 µM | – | 0.829 µM |
| O=C(NCC(=O)N1CC[C@H](NC2CCC(O)(c3ccc(-c4ncccn4)cn3)CC2)C1)c1cccc(C(F)(F)F)c1 (stereo partly drawn) | 55.4 µM | > 100 µM | – | – | – | – | 39.8 µM | > 100 µM | > 100 µM | > 100 µM | 48.9 µM | > 100 µM | 51.6 µM | > 100 µM | 38.2 µM | > 100 µM |
| COc1cc(C2CC(c3ccc(Nc4ccnc5cc(Cl)ccc45)cc3)=NN2C=O)cc(OC)c1OC (stereo not drawn) | 2.53 µM | 7.4 µM | – | – | 3.75 µM | 13.9 µM | 3.36 µM | 9.21 µM | 2.1 µM | 5.4 µM | 3.24 µM | 27.7 µM | 11.7 µM | > 100 µM | 5.63 µM | 27.7 µM |
| COc1ccc(N(C)c2nc(Cl)nc3ccn(C)c23)cc1 | < 0.01 µM | < 0.01 µM | < 0.01 µM | > 100 µM | < 0.01 µM | > 100 µM | < 0.01 µM | > 100 µM | – | – | < 0.01 µM | > 100 µM | < 0.01 µM | > 100 µM | < 0.01 µM | > 100 µM |

From PubChem BioAssay (NCI)
